{"source": "patent US20110263668A1", "about": "“Beta 3-Adrenoreceptor Agonists for the Treatment of Cardiac Hypertrophy and Heart Failure” (THE JOHNS HOPKINS UNIVERSITY, priority 2009, published 2011)", "system": "β3−/− and WT mice with transverse aortic constriction (TAC)", "experiment": "Echocardiography in β3−/− and WT mice after TAC with BH4 in the diet", "type": "in vivo, mouse", "conditions": "BH4 200 mg/kg/day in soft diet", "method": "Experimental Model. Baseline echocardiography was performed on 8-week, 4-month, and 14-18 month-old homozygous β3^−/− mice (n=57 total, original breeding pairs kindly provided by Dr. Bradford Lowell (Klein et al. (1999)) and age-matched FVB background WT controls (n=13, Jackson Laboratories, Bar Harbor, Me.). Transverse aortic constriction (TAC) was performed on 8-week-old male β3^−/− (n=21) and age-matched male WT controls (n=24) as previously described (Takimoto et al. (2005)). Briefly, after anesthesia with isoflurane (2%), the chest was opened through a small thoracic window between ribs 2 and 4, and a 25 G needle placed on the transverse aorta. This needle size was chosen to elicit a milder response as initial studies using a standard TAC model (27 G needle) led to pulmonary edema and 100% early mortality in β3^−/− mice. The band was secured using a 7.0 prolene suture, the needle was then removed and the chest closed. Twelve animals per strain underwent sham surgery. To measure pressure changes after TAC, pressure volume loops were obtained using a Millar micromanometer catheter as previously described (Barouch et al. (2002)). Animals were sacrificed 3 or 9 weeks after TAC and myocardial tissue preserved in 10% formalin or snap-frozen in liquid nitrogen for subsequent analysis. To determine whether there were any differences in proximal pressures after TAC between strains, a 1.4 F pressure catheter (Millar Instruments, Houston, Tex.) was advanced into the ascending aorta from the LV, and pressures recorded before and after TAC. […] In vivo cardiac geometry and function were serially assessed by transthoracic echocardiography (Acuson Sequoia C256, 13 MHz transducer; Siemens) in conscious mice. M-mode LV end-systolic and end-diastolic cross-sectional diameter (LVESD, LVEDD), and the mean of septal and posterior wall thicknesses were determined from an average of 3-5 cardiac cycles. LV fractional shortening (% FS) and LV mass were determined using a cylindrical model as previously described (Barouch et al. (2003)).", "data": [{"compound": "C[C@H](O)[C@H](O)[C@H]1CNc2nc(N)[nH]c(=O)c2N1", "note": "[BH4, tetrahydrobiopterin]", "values": [{"measurement": "change in fractional shortening", "setting": "WT-TAC/BH4, 3 weeks of TAC", "result": "−1.8±3.0", "unit": "%"}, {"measurement": "change in fractional shortening", "setting": "β3−/− TAC/BH4, 3 weeks of TAC", "result": "−0.4±0.2", "unit": "%"}, {"measurement": "increase in calculated LV mass", "setting": "β3−/− TAC/BH4, 3 weeks of TAC", "result": "+15.0±6.8%"}]}]}
